This is an account of results in publication PMC6476888, “Design and synthesis of anticancer 1-hydroxynaphthalene-2-carboxanilides with a p53 independent mechanism of action” (Scientific Reports, 2019).

The subject of one experiment is NHDF. The experiment in a line: Cytotoxicity (MTS, 72 h) against normal human fibroblasts. The format is cell-based. Particulars: Homo sapiens, NHDF; MTS, 72 h incubation.
Experiment [1] concerns p53/p21 system in the HCT116 cells. Briefly: Western blot of p53/p21 activation. The format is cell-based, human. Particulars: wild-type HCT116, 12 and 24 h. As to the method: Further exploration of the cell death model was performed by a western blot analysis of protein activation in response to incubation with the tested compound (Figs 6, 7). […] The proapoptotic activation of the p53/p21 system was noticeable after the first 12 hours and then became stronger after 24 h. This effect was not observed in the case of the p53 null cells, which were unable to synthesize this protein.
The HCT116 cells were seeded in 3-cm Petri dishes (Nunc) at a density of 0.5·10^6 cells/well and incubated overnight. […] The cells were harvested by trypsinization and washed with cold PBS. Next, the cells were centrifuged and suspended in an RIPA buffer (Thermo-Fisher Scientific) containing Halt Protease Inhibitor Cocktail (Thermo-Fisher Scientific), Halt Phosphatase Inhibitor Cocktail (Thermo-Fisher Scientific) along with 0.5 M EDTA and lysed for 20 min on ice. Then, the lysates were sonicated, centrifuged at 10,000 rpm for 10 min at 4 °C and the supernatants were collected for further analysis. The protein concentration was determined using a Micro BCA™ Protein Assay Kit (Thermo-Fisher Scientific, Waltham, MA, USA c) according to the manufacturer’s instructions. Equal amounts of the proteins (20 μg) were electrophoresed on SDS-Page gels and transferred onto nitrocellulose membranes. The membranes were blocked in 5% non-fat milk prepared in PBS containing 0.1% Tween-20 (TPBS) for 1 h. After blocking, the membranes were incubated with specific primary antibodies: p21^Waf1/Cip1, p53, cytochrome c, caspase-8, caspase-9, AIF, PARP, GAPDH and β-Actin overnight at 4 °C, and then washed and incubated with horseradish peroxidase (HRP)-conjugated secondary antibodies for 1 h at room temperature. All of the antibodies were purchased from CellSignaling (Danvers, MA, USA) and were diluted 1:1000 in 5% milk in TPBS. Finally, the membranes were washed and incubated with a SuperSignal™ West Pico Chemiluminescent Substrate (Thermo-Fisher Scientific). The chemiluminescence signals were captured using a ChemiDoc™ XRS+ System (Bio-Rad Laboratories, Hercules, CA, USA). The experiments were performed at least three times. Densitometric analysis was performed using ImageJ 1.41 software (Wayne Rasband, National Institutes of Health, USA).
A general note: A western blot detects proteins with antibodies after separation by electrophoresis.

A further experiment deals with CT-DNA. The experiment in a line: Spectrophotometric DNA intercalation assay. The format is binding, calf. From the text:
The fused aromatic rings of the naphthalene moiety and halogen substituents in aniline may guarantee good intercalating properties[71],[72]. On the other hand, the intercalation of DNA may explain the high activity against both the wild-type and p53 mutants as was reported for a series of styrylquinolines. Binding to DNA causes the bases to mismatch or cleave, which results in the arrest of the cell cycle and apoptosis. The effectiveness of the p53 system is one of the most important factors in the response to therapy. We tested the intercalating properties of the selected compounds in a spectrophotometric assay on calf-thymus DNA. The absorption spectra of the tested compounds in the absence and presence of CT-DNA are presented in Figure S1 Supplementary Information and the spectral properties with doxorubicine and CP-31398 are summarized in Table 2.
For the DNA binding studies, Calf-thymus DNA (CT-DNA) was purchased from Sigma- Aldrich. The lyophilized CT-DNA was dissolved in 10 mM Tris-HCl, pH 7.9, mixed gently and left overnight at 4 °C. The purity of the CT-DNA solution was determined by measuring the ratio of UV absorbance at 260 and 280 nm. […] Then, the concentration of CT-DNA was determined from the absorbance at 260 nm using an extinction coefficient of 6600 M^−1cm^−1. The tested compounds including DOX and CP-31398 were dissolved to a concentration of 8.35 mM in DMSO, which was then used as the stock solution for preparing the various concentrations (25, 12.5, 6 and 3 µM) in 1 mL in 10 mM of Tris-HCl (pH 7.9). Afterwards, 18 µM CT-DNA was added to the prepared solutions, which were incubated for 1.5 h at 37 °C with occasional vortexing. The absorption spectra were measured using a Hitachi U-2900 spectrophotometer in the range of 200–500 nm. All absorption spectra were imported into OriginPro 8.0 and compared.

A further experiment relates to HCT116^+/+. Briefly: Antiproliferative assay (MTS, 72 h) on HCT116 wild type. The format is cell-based, human. Particulars: Homo sapiens, HCT-116; MTS, 72 h incubation; read-out: Activity IC50 HCT116^+/+.
In a further experiment the test system is HCT116^−/−. Briefly: Antiproliferative assay (MTS, 72 h) on HCT116 with p53 deletion. As to conditions: Homo sapiens, HCT-116; MTS, 72 h incubation. The format is cell-based, human.
The mark [2] stands for this setting: bound to CT-DNA, for CP-31398 first value (312 nm band).

Consider `COc1cccc2c1C(=O)c1c(O)c3c(c(O)c1C2=O)C[C@@](O)(C(=O)CO)C[C@@H]3O[C@H]1C[C@H](N)[C@H](O)[C@H](C)O1` [DOX, doxorubicin, reference compound], for which the IC50 in the experiment on NHDF was 3380 ± 1290 nM. Besides, in experiment [1], the p21 protein amount result is reported as “dramatic increase” and the “p53 protein amount / activation” value is reported as “dramatic increase”. In addition, in the experiment with CT-DNA (bound to CT-DNA (18 µM), 1.5 h 37 °C, Tris-HCl pH 7.9), the Changes in absorbance result is on record as “hypochromism”. In the experiment with CT-DNA (setting [2]), the “% hypochromism” value came to 34.2% and the Δε is 3235.6 M⁻¹ cm⁻¹. The red shift with CT-DNA (wavelengths of maximum absorption, individual vs DNA-bound compound) came to 10 nm. The IC50 with HCT116^+/+ is 340 ± 40 nM. The IC50 in the experiment on HCT116^−/− came to 380 ± 30 nM.
